Laboratory results as given in patent publication US20260315452A1, “PROTEASE INHIBITORS AND USES THEREOF” (priority 2023, published 2026).
Where two headings read alike, the source gives them in different places.

Tests used:
SARS-CoV-2 = assay: Anti-SARS-CoV-2 activity in A549 cells expressing the human ACE2 receptor (inhibition of SARS-CoV-2 replication); type: cell-based; settings: read-out: Antiviral Activity (EC50)
SARS-CoV-2 3CLpro = SARS-CoV-2 3CLpro (Severe acute respiratory syndrome coronavirus 2, UniProt P0DTD1); assay: biochemical; settings: inhibition of SARS-CoV-2 3CLpro; 15 nM 3CLpro, 25 μM fluorogenic substrate, 37° C.; read-out: Inhibitory Activity (IC50)
[1] = Severe acute respiratory syndrome coronavirus 2, A549-ACE2, 24 h

SMILES | EC50 (SARS-CoV-2; [1]) [nM] | IC50 (SARS-CoV-2 3CLpro) [nM] | EC50 (SARS-CoV-2; inhibition of SARS-CoV-2 replication in mammalian cells, A549-ACE2 cells, 24 hours infection) [nM]
O=C(NC1CC(F)(F)C1)c1cc(Br)cc(C(F)(F)F)c1N[C@@H]1COCC[C@@H]1NC(=O)c1cncc2ccccc12 [Compound 79, N-((3S, 4S)-3-((4-bromo-2-((3,3-difluorocyclobutyl)carbamoyl)-6-(trifluoromethyl)phenyl)amino)tetrahydro-2H-pyran-4-yl)isoquinoline-4-carboxamide] | 100 to 1000 | < 100 | 
CNC(=O)c1cc(Br)cc([N+](=O)[O-])c1NC(C(C)C)C1CN(C(=O)c2cncc3ccccc23)C1 (stereo in doubt) [Compound 12, (S)-5-bromo-2-((1-(1-(isoquinoline-4-carbonyl)azetidin-3-yl)-2-methylpropyl)amino)-N-methyl-3-nitrobenzamide] | < 100 | < 100 | 
C[C@@H](NC(=O)c1cc(Br)cc([N+](=O)[O-])c1N[C@@H]1CCCN(C(=O)c2cncc3ccccc23)C1)C(F)(F)F [Compound 81, 5-bromo-2-(((R)-1-(isoquinoline-4-carbonyl)piperidin-3-yl)amino)-3-nitro-N-((R)-1,1,1-trifluoropropan-2-yl)benzamide] | < 100 | < 100 | 
CNC(=O)c1cc(Br)cc([N+](=O)[O-])c1N[C@@H]1COCC[C@@H]1NC(=O)c1cncc2ccccc12 [Compound 132, N-((3S, 4S)-3-((4-bromo-2-(methylcarbamoyl)-6-nitrophenyl)amino)tetrahydro-2H-pyran-4-yl)isoquinoline-4-carboxamide] | < 100 | < 100 | 
CNC(=O)c1cc(Br)cc([N+](=O)[O-])c1N[C@@H]1CCCN(C(=O)c2cncc3ccccc23)C1 [Compound 75, (R)-5-bromo-2-((1-(isoquinoline-4-carbonyl)piperidin-3-yl)amino)-N-methyl-3-nitrobenzamide] | < 100 | < 100 | 
O=C(c1cc(Br)cc([N+](=O)[O-])c1N[C@H]1CN(C(=O)c2cncc3ccccc23)CCC1(F)F)N1CC(F)(F)C1 [Compound 36, (S)-(5-bromo-2-((4,4-difluoro-1-(isoquinoline-4-carbonyl)piperidin-3-yl)amino)-3-nitrophenyl)(3,3-difluoroazetidin-1-yl)methanone] | < 100 | < 100 | 
CC(NC(=O)c1cc(Br)cc([N+](=O)[O-])c1N[C@@H]1CCCC[C@@H]1NC(=O)c1cncc2ccccc12)C(F)(F)F (stereo partly drawn) [Compound 60, N-((1S, 2R)-2-((4-bromo-2-nitro-6-((1,1,1-trifluoropropan-2-yl)carbamoyl)phenyl)amino)cyclohexyl)isoquinoline-4-carboxamide] | 100 to 1000 | 100 to 1000 | 
O=C(NC1CC(F)(F)C1)c1cc(Cl)cc(C(F)(F)F)c1N[C@H]1CN(C(=O)c2cncc3ccccc23)CCC1(F)F [Compound 82, (S)-5-chloro-2-((4,4-difluoro-1-(isoquinoline-4-carbonyl)piperidin-3-yl)amino)-N-(3,3-difluorocyclobutyl)-3-(trifluoromethyl)benzamide] | < 100 | < 100 | 
O=C(NC1CC(F)(F)C1)c1cc(Cl)cc(C(F)(F)F)c1N[C@@H]1COCC[C@@H]1NC(=O)c1cncc2ccccc12 [Compound 145, N-((3S, 4S)-3-((4-chloro-2-((3,3-difluorocyclobutyl)carbamoyl)-6-(trifluoromethyl)phenyl)amino)tetrahydro-2H-pyran-4-yl)isoquinoline-4-carboxamide] | 100 to 1000 | 100 to 1000 | 
CNC(=O)c1cc(Br)cc([N+](=O)[O-])c1N[C@@H]1CCN(C(=O)c2cncc3ccccc23)C1 [Compound 64, (R)-5-bromo-2-((1-(isoquinoline-4-carbonyl)pyrrolidin-3-yl)amino)-N-methyl-3-nitrobenzamide] | 100 to 1000 | 100 to 1000 | 
O=C(NC1CC(F)(F)C1)c1cc(Br)cc([N+](=O)[O-])c1N1CCC2(CCN(C(=O)c3cncc4ccccc34)C2)C1 (centres unmarked) [Compound 26, 5-bromo-N-(3,3-difluorocyclobutyl)-2-(7-(isoquinoline-4-carbonyl)-2,7-diazaspiro[4.4]nonan-2-yl)-3-nitrobenzamide] | 100 to 1000 | < 100 | 
CNC(=O)c1cc(Br)cc([N+](=O)[O-])c1N[C@@H]1CCCC[C@@H]1NC(=O)c1cncc(C(F)(F)F)c1 [Compound 72, N-((1S, 2R)-2 ((4-bromo-2-(methylcarbamoyl)-6-nitrophenyl)amino)cyclohexyl)-5-(trifluoromethyl)nicotinamide] | > 10000 | 1000 to 10000 | 
C[C@H](NC(=O)c1cc(Br)cc([N+](=O)[O-])c1N[C@@H]1COCC[C@@H]1NC(=O)c1cncc2ccccc12)C(F)(F)F [Compound 135, N-((3S, 4S)-3-((4-bromo-2-nitro-6-(((S)-1,1,1-trifluoropropan-2-yl)carbamoyl)phenyl)amino)tetrahydro-2H-pyran-4-yl)isoquinoline-4-carboxamide] | < 100 | < 100 | 
CNC(=O)c1cc(Br)cc([N+](=O)[O-])c1N[C@@H]1CCCC[C@@H]1NC(=O)C[C@@H]1CCNC1=O [Compound 7, 5-bromo-N-methyl-3-nitro-2-(((1R, 2S)-2-(2-((S)-2-oxopyrrolidin-3-yl)acetamido)cyclohexyl)amino)benzamide] | > 10000 | 1000 to 10000 | 
CNC(=O)c1cc(Br)cc([N+](=O)[O-])c1N[C@@H]1CCCC[C@@H]1NC(=O)c1cncc2ccncc12 [Compound 55, N-((1S, 2R)-2-((4-bromo-2-(methylcarbamoyl)-6-nitrophenyl)amino)cyclohexyl)-2,6-naphthyridine-4-carboxamide] | 100 to 1000 | 100 to 1000 | 
CNC(=O)c1cc(Br)cc([N+](=O)[O-])c1N1CC(F)(F)C2(CCN(C(=O)c3cncc4ccccc34)C2)C1 (centres unmarked) [Compound 67, 5-bromo-2-(4,4-difluoro-7-(isoquinoline-4-carbonyl)-2,7-diazaspiro[4.4]nonan-2-yl)-N-methyl-3-nitrobenzamide] | 100 to 1000 | 100 to 1000 | 
O=C(NC1CC1)c1cc(Br)cc([N+](=O)[O-])c1N[C@@H]1CCCN(C(=O)c2cncc3ccccc23)C1 [Compound 125, (R)-5-bromo-N-cyclopropyl-2-((1-(isoquinoline-4-carbonyl)piperidin-3-yl)amino)-3-nitrobenzamide] | < 100 | < 100 | 
O=C(NC1CC(F)(F)C1)c1cc(Br)cc([N+](=O)[O-])c1N1CCC2(CN(C(=O)c3cncc4ccccc34)CC2(F)F)C1 (centres unmarked) [Compound 27, 5-bromo-2-(9,9-difluoro-7-(isoquinoline-4-carbonyl)-2,7-diazaspiro[4. 4]nonan-2-yl)-N-(3,3-difluorocyclobutyl)-3-nitrobenzamide] | 100 to 1000 | < 100 | 
O=C(NC1CCOC1)c1cc(Cl)cc([N+](=O)[O-])c1N[C@H]1CN(C(=O)c2cncc3ccccc23)CCC1(F)F (stereo in doubt) [Compound 159, 5-chloro-2-(((S)-4,4-difluoro-1-(isoquinoline-4-carbonyl)piperidin-3-yl)amino)-3-nitro-N-((S)-tetrahydrofuran-3-yl)benzamide] |  |  | < 100
O=C(N[C@H]1CCOC1)c1cc(Br)cc(C(F)(F)F)c1N[C@H]1CN(C(=O)c2cncc3ccccc23)CCC1(F)F [Compound 164, 5-bromo-2-(((S)-4,4-difluoro-1-(isoquinoline-4-carbonyl)piperidin-3-yl)amino)-N-((S)-tetrahydrofuran-3-yl)-3-(trifluoromethyl)benzamide] |  | < 100 | 
